US11344552B2, “Methods for treating metastatic pancreatic cancer using combination therapies comprising liposomal irinotecan and oxaliplatin” (Ipsen Biopharm Ltd., priority 2015, dated 2022)
Read-outs that look alike come from different tables or passages of the source.

Legend:
[1] = Phase 3 study of the FOLFIRINOX combination; cited from earlier work
[2] = cited from earlier work
[3] = system: PDX 19015 pancreatic cancer xenograft; assay: Patient-derived xenograft (PDX #19015) pancreatic cancer mouse efficacy model; assay type: in vivo; conditions: FIG. 6D, relative to the control group
Experimental: Treatment doses are indicated in the figure beside each treatment, and were given 4 times.
Significance was determined by ordinary 2-way analysis of variance (ANOVA). The regimens were administered on days 0, 7, 14 and 21 of the study.
Female CB.17 SCID mice were obtained from Roswell Park Cancer Institute (Buffalo, N.Y.), initially at 6-8 weeks of age. Per treatment group, 8 animals were treated, unless otherwise indicated. Tumor pieces were derived from donor mice and engrafted subcutaneously.
5-FU was administered intraperitoneally. […] Tolerability: Mouse weights were measured once weekly to monitor treatment tolerability.

[4] = system: pancreatic cell lines (AsPC-1, BxPC-3, Capan-2, CFPAC-1, and MiaPaCa-2); assay: In vitro cell growth inhibition by SN-38 exposure duration in a panel of pancreatic cell lines; conditions: SN-38 combined with 5-FU or oxaliplatin; prolonged vs short exposure
topoisomerase I = target: T1, topoisomerase I (Homo sapiens, UniProt P11387); conditions: metabolite formed by nonspecific carboxylesterases; cited from earlier work
T1 sequence (P11387 1-765): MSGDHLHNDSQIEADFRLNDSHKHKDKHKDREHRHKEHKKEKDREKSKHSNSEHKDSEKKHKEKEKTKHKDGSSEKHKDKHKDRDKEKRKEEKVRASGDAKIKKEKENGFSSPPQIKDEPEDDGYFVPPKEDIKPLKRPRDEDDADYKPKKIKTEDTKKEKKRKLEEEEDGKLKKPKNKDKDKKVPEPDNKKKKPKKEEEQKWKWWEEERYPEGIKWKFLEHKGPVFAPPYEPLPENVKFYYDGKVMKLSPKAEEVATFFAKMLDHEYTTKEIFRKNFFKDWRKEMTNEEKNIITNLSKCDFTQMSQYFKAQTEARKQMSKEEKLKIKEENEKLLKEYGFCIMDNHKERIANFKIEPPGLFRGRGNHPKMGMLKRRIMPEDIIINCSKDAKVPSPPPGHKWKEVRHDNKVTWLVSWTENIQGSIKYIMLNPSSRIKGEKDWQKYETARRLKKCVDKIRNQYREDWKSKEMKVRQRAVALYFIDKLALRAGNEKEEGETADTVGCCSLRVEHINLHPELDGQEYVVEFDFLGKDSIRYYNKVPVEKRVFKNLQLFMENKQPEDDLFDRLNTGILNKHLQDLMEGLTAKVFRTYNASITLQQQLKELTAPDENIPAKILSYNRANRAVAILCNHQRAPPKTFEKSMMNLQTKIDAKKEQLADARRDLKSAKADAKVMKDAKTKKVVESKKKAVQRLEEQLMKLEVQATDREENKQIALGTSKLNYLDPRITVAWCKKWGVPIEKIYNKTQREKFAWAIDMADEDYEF

[5] = Delayed dosing of oxaliplatin: tolerability, hematologic and liver toxicities in naive CD-1 mice; conditions: intravenous, pre-defined
Experimental: Tolerability studies were performed in naïve (non-tumor-bearing) mice. Three animals were treated per group.
Each drug was administered individually, or in combination. […] A single administration of each drug was given. Mouse body weights were measured daily for up to 2 weeks post-treatment.
Measurement of hematologic and liver toxicities: At the end of study, terminal bleeds were performed for each mouse via cardiac puncture. Hematologic function (blood cell count) was measured by Hemavet (Drew Scientific, Miami Lakes, Fla.), according to manufacturer's protocol. Liver function (enzyme levels) was measured by CatalystDx (Idexx Laboratories, Westbrook, Me.) according to the manufacturer's protocol.

FOLFIRINOX
incidence of most common Grade 3-4 adverse events (neutropenia, fatigue, vomiting, diarrhea, thrombocytopenia, sensory neuropathy, anemia, elevated ALT, thromboembolism, febrile neutropenia) [1]: > 5%

CCc1c2c(nc3ccc(OC(=O)N4CCC(N5CCCCC5)CC4)cc13)-c1cc3c(c(=O)n1C2)COC(=O)[C@]3(O)CC [irinotecan, (S)-4,11-diethyl-3,4,12,14-tetrahydro-4-hydroxy-3,14-dioxo1H-pyrano[3′,4′: 6,7]-indolizino[1,2-b]quinolin-9-yl-[1,4′bipiperidine]-1′-carboxylate]
incidence of grade 4 neutropenia ([2]; patients heterozygous for UGT1A1*28 (6/7 genotype), single-agent irinotecan 350 mg/m^2 once every-3-weeks): 12.5% | incidence of grade 4 neutropenia ([2]; patients homozygous for the UGT1A1*28 allele, single-agent irinotecan 350 mg/m^2 once every-3-weeks): 50% | incidence of grade 4 neutropenia ([2]; patients homozygous for the wild-type allele (UGT1A1 6/6 genotype)): no grade 4 neutropenia was observed | overall survival [3]: No benefit of added 5-FU or oxaliplatin

CCc1c2c(nc3ccc(O)cc13)-c1cc3c(c(=O)n1C2)COC(=O)[C@]3(O)CC [SN-38]
cell growth inhibition [4]: prolonged exposure also led to increased cell growth inhibition | activity relative to irinotecan (topoisomerase I): 100-1000 fold

O=C(O)C(=O)O.[NH-][C@@H]1CCCC[C@H]1[NH-].[Pt+2] [oxaliplatin]
maximum tolerated dose [5]: 17 mg/kg
